Assay results from patent publication US20230277550A1, “Methods for Treating Respiratory Diseases Characterized by Mucus Hypersecretion” (The Board of Trustees of the Leland Stanford Junior …, priority 2020, published 2023).
Entries after “also recorded” stand apart in the source; their conditions may differ.

Columns and labels:
[1] = test system: HNEC cultures from a CF patient; assay: IL-13 induced chronic inflammation model in ALI HNEC cultures; assay type: cell-based, human; conditions: DAPT 1 um, semagacestat 125 nm, days 14-21
Procedure: Administration of IL-13 to ALI cultures induces goblet cell hyperplasia and is a useful model of chronic inflammation. ALI HNEC cultures were prepared as described in Vladar et al. ALI cultures were treated with and without administration of Il-13 on days 7-14. DAPT (1 um), semagacestat (125 nm) or vehicle control were administered on days 14-21. PFA-fixed cultures were stained for Muc5AC (red; mucin producing secretory cells), Acetylated tubulin (green; MCCs) and E-Cadherin (blue to reveal cell boundaries).
HNEC cultures from a CF patient were treated with IL-13 from ALI+7 to 14 to induce inflammation. […] IL-13 treatment increases the percentage of mucin positive secretory cells and decreases the percentage of MCCs.

[2] = test system: Mature (ALI+30d) primary human airway epithelial cells; assay: GSI treatment of mature (ALI+30d) cultures; assay type: cell-based; conditions: mature cultures treated one (ALI+30 to +37d) or two weeks (ALI+30 to +44d)
Procedure: Mature (ALI+30d) primary human airway epithelial cells were treated with DAPT and semagacestat for one (ALI+30 to +37d) or two weeks (ALI+30 to +44d), then labeled with anti-acetylated α-Tubulin (green) and ECAD (red) antibodies.

[3] = cited from earlier work
[4] = test system: Primary human airway epithelial cells; assay: MCC formation with a variety of GSIs at high and low concentrations; assay type: cell-based
[5] = test system: primary human nasal epithelial cells (HNECs); assay: Semagacestat dose response on multiciliated cell (MCC) formation in HNEC ALI cultures; assay type: cell-based
Procedure: Air-Liquid Interface (ALI) cultures were prepared as described in Vladar EK, Nayak JV, Milla CE, Axelrod JD. Airway epithelial homeostasis and planar cell polarity signaling depend on multiciliated cell differentiation. JCI Insight. 2016;1(13);e88027. Human nasal epithelial cells (HNECs) were generated from human sinonasal epithelial brushings or from tissue obtained from patients undergoing endoscopic sinus surgery at Stanford Hospital and cultured as described in Vladar et al.
Cultures were treated with varying doses of semagacestat. DAPT (Abcam) was used ([…]) as a positive control for GSI activity. Cultures were labeled at ALI+21d with anti-acetylated α-tubulin (green) and ECAD (red) antibodies to mark cilia and epithelial junctions.
The ratio was defined as MCC number/total luminal cells. Counting was done on one representative image from 5 culture replicates from a single donor.

[6] = test system: Primary nasal epithelial cells from two CF donors (F508del homozygote); assay: Airway surface liquid (ASL) reabsorption; assay type: cell-based, human; conditions: 30 µl PBS, weight change over time; p = <0.001 vs control
Procedure: Primary nasal epithelial cells from two CF donors (F508del homozygote) were grown in filter inserts as in previous experiments to full differentiation. During differentiation they received treatment with vehicle control (blue), triple combination CFTR modulator (Elexcaftor/Tezacaftor/Ivacaftor; orange), the GSI semagacestat (LY-45139) (gray) or both treatments combined (yellow). Once they reached maturity, the apical surface was washed gently with PBS and then 30 µl of PBS were added to the surface. The filter inserts were then weighed on a precision scale at times 0, 12 and 24 hours after fluid addition. The change in weight over time was taken as a surrogate for fluid reabsorption.

airway epithelia = assay: In vivo mouse model, ratio of MCCs to non-ciliated cells in airway epithelia after IP dosing; set-up: species or system mice
Procedure: Airways from lung sections of similar size were labeled for all nuclei (red; DAPI) and MCC cell fate (green; FoxJ1 and blue; acetylated tubulin). Cells were scored and the percentage of MCCs determined prior to unblinding treatment condition. Otherwise wildtype mice carried FoxJ1::GFP to facilitate scoring of MCCs.
10-40 week age-matched male and female Foxj1-GFP mice were given semagacestat or vehicle by intraperitoneal (IP) administration. In the first experiment, semagacestat was administered at 0.1 mg/kg and 1 mg/kg twice daily for three days and compared to vehicle alone. Mice were sacrificed on day 7. […] In approximately similar sized, PFA-fixed airways, nuclei (red; DAPI) were scored either as MCCs (green; GFP) or non-ciliated cells (absence of GFP). Acetylated tubulin (blue) marks cilia. Samples were blinded for treatment group prior to scoring.
In the second experiment, vehicle and semagacestat were administered once daily for 5 consecutive days per week for three weeks, with a semagacestat dose of 1 mg/kg. An important observed toxicity in multiple GSI clinical trials, including large Alzheimer’s Disease trials, was gastrointestinal toxicity. As a surrogate measure of GI toxicity, we monitored body weight throughout the experiment.
Body weight was measured on Days 1, 9, 24 and 30, and mice were sacrificed on day 31.

Structure (SMILES): CC(C)[C@H](O)C(=O)N[C@@H](C)C(=O)N[C@@H]1C(=O)N(C)CCc2ccccc21 [semagacestat, (2S)-2-hydroxy-3-methyl-N-[(1S)-1-methyl-2-oxo-2-[[(1S)-2,3,4,5-tetrahydro-3-methyl-2-oxo-1H-3-benzazepin-1-yl]amino]ethyl]-butamide]
- percentage of MCCs ([1]; after IL-13 (ALI+7 to 14)): increasing the percentage of MCCs
- percentage of mucin positive secretory cells ([1]; after IL-13 (ALI+7 to 14)): decreasing the percentage of mucin positive secretory cells
- percentage of MCCs ([1]; controls without IL-13): increase the percentage off MCCs
- formation of additional multiciliated cells [2]: induces the formation of additional multiciliated cells
- adverse events ([3]; 100 mg and 140 mg daily): more adverse events, including skin cancers and infections
- cognitive status ([3]; 100 mg and 140 mg daily): did not improve cognitive status
- cognitive ability ([3]; patients on the highest dose): significant worsening of cognitive ability
- epithelial structure ([4]; high concentrations, ALI+0 to +21d): disrupted epithelial structure
- multiciliated cell formation ([4]; low concentration, ALI+0 to +21d): induced multiciliated cell formation
- Notch signaling and differentiation towards MCCs ([4]; nanomolar range, human nasal epithelial cells): effective in blocking Notch signaling, driving differentiation towards MCCs
- semagacestat concentration at which the percentage of MCCs is at its baseline ([5]; HNECs, FIG. 1 dose response): 15.625 nM
- semagacestat concentration at which the percentage of MCCs reaches its maximum ([5]; HNECs, FIG. 1 dose response): around 125 nM
- Toxicity ([5]; HNECs, micromolar doses): Toxicity is observed at micromolar doses
- conversion to MCCs ([5]; nanomolar concentrations, labeled at ALI+21d): effective conversion to MCCs
- ratio MCC number/total luminal cells ([5]; semagacestat doses from 500 nM to 31.25 nM, p <0.01 by ANOVA with Dunnett's test): significant increases
- ASL (fluid) reabsorption vs control [6]: significantly decreased reabsorption
- ratio of ciliated to non-ciliated cells (airway epithelia; 0.1 mg/kg and 1 mg/kg IP twice daily for three days, sacrificed day 7, vs vehicle): increase; also recorded: a dose response trend was observed, with the high dose reaching statistical significance
- ratio of ciliated to non-ciliated cells (airway epithelia; 1 mg/kg IP once daily, 5 days per week for three weeks, day 31, vs vehicle): significant increase; also recorded: highly significant
